Experimental findings from patent US6812037B1, “Antimitotic compounds” (The University of British Columbia, priority 1999, dated 2004) are described below.

The subject of data set [1] is MCF-7 cells. Kind of data set: ELICA of mitotic cells (Enzyme-Linked Immuno-Cytochemical assay, TG-3 antibody). The format is cell-based, human. Here is the method:
(§1) Cell Culture and Treatment. Human breast carcinoma MCF-7 cells were cultured as monolayers. The cells were seeded at 10,000 per well of 96-well polystyrene tissue culture plates (Falcon) in 200 μl medium and were allowed to grow overnight. Crude extracts of marine organisms were then added at about 10 μg/ml or 1 μg/ml, from 1000-fold stocks in dimethylsulfoxide (DMSO). Untreated samples received an equivalent amount of DMSO and several as negative controls. Cells treated with 100 ng/ml nocodazole (Sigma), from a 1000-fold stock in DMSO, served as positive controls. Cells were incubated for 16-20 hours. The relative number of cells in mitosis was then determined by microscopy, by enzyme-linked immunosorbent assay (ELISA) or by an enzyme-linked cytochemical assay (ELICA), as described below.
ELICA of Miltotic Cells. While the ELISA is accurate and reliable, it requires transferring cell lysates to ELISA plates and many solution changes. The assay of this invention is faster and easier to use for drug screening. […] In a preferred assay of this invention, cells are fixed with formaldehyde in their microtiter culture plates and permeabilized with methanol and detergents. The TG-3 primary antibody and HRP-conjugated secondary antibody may be added sequentially but are preferably added simultaneously. Colorimetric detection of HRP activity remains unchanged. This new assay is termed: an Enzyme-Linked Immuno-Cytochemical assay (ELICA).
After incubation with marine extracts, the medium was withdrawn carefully using a pipetor and 100 μl of 10 mM Tris-HCl (pH 7.4) 150 mM NaCl, containing 3.7% formaldehyde was added to fix the cells for 30 minutes at 4° C. The fixative was removed and replaced with 100 μl of cold (−20° C.) methanol for 5 minutes to permeabilize the fixed cells. The methanol was removed and the wells were rinsed briefly with 200 μl antibody buffer. Then, 100 μl antibody buffer containing 0.1-0.15 μg/ml TG-3 monoclonal antibody and HRP-conjugated goat anti-mouse IgM secondary antibody at a 50-fold dilution, was added to 16-20 hours at 4° C. The plates were washed twice with 200 μl 10 mM Tris-HCl pH 7.4, 0.02% Tween 20™. Then, 100 μl of 120 mM Na2HPO4, 100 mM citric acid (pH 4.0) containing […] 2,2′-azino-bis(-3ethylbenz-thiazoline-6-sulfonic acid) and 0.01% hydrogen peroxide was added for 1 hour at room temperature and the absorbance at 405 nm was measured.

The test system of data set [2] is MCF-7 cells. Kind of data set: Mitotic arrest of MCF-7 cells, counting mitotic cells by microscopy (mitotic spreads). The format is cell-based, human. Here is the method: as §1
Screens for Antimitotic Agents. MCF-7 cells were incubated for 20 hours with different concentrations of the antimitotic drug paclitaxel, and the proportion of cells arrested in mitosis was measured by counting mitotic cells in the microscope, and by ELISA. Paclitaxel induced mitotic arrest in a concentration-dependent manner with half-maximal activity at 10 nM measured by microscopy (FIG. 1A) and at 4 nM measured by ELISA (FIG. 1B, □)
Further comparison of the antimitotic activities of eleutherobin and desmethyleleutherobin was done using microscopic examination of a standard cell spread.

Data set [3] has as its system SCCVII squamous cell carcinoma. The experiment in a line: In vivo antimitotic/anticancer activity, tumor cell survival by colony formation. Also noted: species or system C3H mice. Here is the method: In Vivo Antimitotic/Anticancer Activity. C3H mice of approximately 26 g bearing SCCVII squamous cell carcinoma (tumor size approximately 0.45 g) were injected intraperitoneally with desmethyleleutherobin. 24 hours later, the mice were intravenously injected with Hoechst 33342™ and then sacrificed. The tumors were removed and single cell suspensions prepared and sorted on the basis of a concentration gradient of Hoechst 33342™, to provide cells sorted according to varying distance from the blood supply. The cells were plated and survival analyzed by observing colony formation.

The test system of data set [4] is MCF-7 cells. Kind of data set: Western blot with TG-3 antibody, densitometric scanning of the 105-kDa band. The format is cell-based, human. The following applies: cells treated for 20 hours with nocodazole vs cycling MCF-7 cells. Here is the method:
The TG-3 monoclonal antibody, originally described as a marker of Alzheimer's disease, is highly specific for mitotic cells. […] In Western blots, the antibody reacts with a 105-kDa protein identified as a mitotically phosphorylated form of nucleolin, that is present in abundance in extracts of cells treated for 20 hours with the antimitotic agent nocodazole but present at only low levels in extracts from cycling MCF-7 cells. Densitometric scanning of the bands on Western blots in these examples show a 27-fold difference in intensity between nocodazole-treated and untreated cells, corresponding well to the difference in the number of mitotic cells in the two samples: 80% for the nocodazole-treated sample and 3% for the untreated sample, as measured by microscopy.

For data set [5], the system named is MCF-7 cells. The experiment in a line: ELISA of mitotic cells (TG-3 antibody). Type of data set: cell-based, human. Here is the method: TG-3 also recognizes mitotic cells in EUISA. In the ELISA assay, the cells may be grown in multi-well plates, lysed and transferred to protein-binding ELISA plates for adsorption to the plastic surface. The antigen may be detected by incubating with TG-3 antibody, an HRP-conjugated secondary antibody and performing a calorimetric determination of HRP activity.
as §1, with “Cells treated with 100 ng/ml nocodazole (Sigma), from a 1000-fold stock in DMSO, served as positive controls. Cells were incubated for 16-20 hours.” left out
ELISA of Mitotic Cells. […] Finally, 100 μl of 120 mM Na2HPO4, 100 mM citric acid (pH 4.0) containing 0.5 μg/ml 2,2′-azino-bis (3-ethyl-benzthiazoline-6-sulfonic acid) and 0.01% hydrogen peroxide was added for 1 hour at room temperature and absorbance at 405 nm was determined using a Dynex MRX™ plate reader.

[6] abbreviates: MCF-7 cells, FIG. 2, read-out: IC50, antimitotic activity as determined by ELICA.

Take `COC(=O)/C1=C/[C@@H]2[C@@H](C(C)C)CC=C(C)[C@@H]2C[C@H](OC(=O)/C=C/c2cn(C)cn2)[C@]2(C)C=C[C@@]1(O)O2` [Sarcodictyin A, sarcodictyin A]: the IC50 in the data set with MCF-7 cells [1] (setting [6]) was ~2000 nM.
As to `CO[C@]12C=C[C@](C)(O1)[C@@H](OC(=O)/C=C\c1cn(C)cn1)C[C@H]1C(C)=CC[C@H](C(C)C)[C@H]1/C=C\2CO[C@@H]1OC[C@@H](O)[C@@H](O)[C@@H]1OC(C)=O` [Z-eleutherobin], the IC50 in the data set with MCF-7 cells [1] (setting [6]) was ~250 nM.
`CO[C@]12C=C[C@](C)(O1)[C@@H](OC(=O)/C=C/c1cn(C)cn1)C[C@@H]1[C@H](/C=C\2CO[C@@H]2OC[C@@H](O)[C@@H](O)[C@@H]2OC(C)=O)[C@@H](C(C)C)C=C[C@@]1(C)O` [caribaeoside]: in the data set with MCF-7 cells [1] (setting [6]), the IC50 was ~20000 nM.
With `CC(=O)O[C@@H]1[C@H](OC/C2=C/[C@@H]3[C@@H](C(C)C)CC=C(C)[C@@H]3C[C@H](OC(=O)/C=C/c3cn(C)cn3)[C@]3(C)C=C[C@@]2(O)O3)OC[C@@H](O)[C@H]1O` [desmethyleleutherobin], the IC50 with MCF-7 cells [2] (MCF-7 cells, FIG. 4, read-out: IC50, antimitotic activity by microscopic examination of a standard cell spread) is ~25 nM; in the data set on MCF-7 cells [1] (setting [6]), ~20 nM. For the same compound, the “overt toxicity to the mice” value in data set [3] (intraperitoneal injection, C3H mice bearing SCCVII tumor) was “no overt toxicity”. In addition, the tumor cells killed entry in data set [3] (intraperitoneal, doses of about 100 μg or more per mouse, 24 hours, FIG. 5) is given as “about 90%”.
As for `CO[C@]12C=C[C@](C)(O1)[C@@H](OC(=O)/C=C/c1cn(C)cn1)C[C@H]1C(C)=CC[C@H](C(C)C)[C@H]1/C=C\2COC1OCC(O)C(O)C1OC(C)=O` (stereo partly drawn) [eleutherobin], the IC50 is ~200 nM in the data set on MCF-7 cells [2] (Homo sapiens, MCF7, read-out: IC50, antimitotic activity by microscopic examination of a standard cell spread) and ~100 nM with MCF-7 cells [1] (Homo sapiens, MCF7, read-out: IC50, antimitotic activity as determined by ELICA).
On to `CO[C@]12C=C[C@](C)(O1)[C@@H](OC(=O)/C=C/c1cn(C)cn1)C[C@H]1C(C)=CC[C@H](C(C)C)[C@H]1/C=C\2CO[C@@H]1OC[C@@H](O)[C@@H](OC(C)=O)[C@@H]1O` [isoeleutherobin A], for which, in the data set with MCF-7 cells [1] (setting [6]), the IC50 was ~50 nM.
Consider `COC(=O)Nc1nc2ccc(C(=O)c3cccs3)cc2[nH]1` [nocodazole], for which the “number of mitotic cells as measured by microscopy” value with MCF-7 cells [2] (cells treated for 20 hours with nocodazole, untreated sample 3%) amounted to 80%. Also, the “difference in band intensity between treated and untreated cells (TG-3 Western blot)” value with MCF-7 cells [4] is 27 fold.
Consider `CC(=O)O[C@H]1C(=O)[C@@]2(C)[C@H]([C@H](OC(=O)c3ccccc3)[C@]3(O)C[C@H](OC(=O)[C@H](O)[C@@H](NC(=O)c4ccccc4)c4ccccc4)C(C)=C1C3(C)C)[C@]1(OC(C)=O)CO[C@@H]1C[C@@H]2O` [paclitaxel], for which the EC50 with MCF-7 cells [5] (Homo sapiens, MCF7, 20 hours incubation, FIG. 1B, read-out: half-maximal activity, mitotic arrest measured by ELISA) stood at 4 nM; in the data set on MCF-7 cells [2] (Homo sapiens, MCF7, MCF-7 cells, 20 hours incubation, FIG. 1A, read-out: half-maximal activity, mitotic arrest measured by microscopy), 10 nM; in the data set with MCF-7 cells [1] (Homo sapiens, MCF7, MCF-7 cells, FIG. 1B, read-out: half-maximal activity, mitotic arrest detected by ELICA) it was 1.5 nM.
On to WF-1360 [Compound A], for which, in the data set on MCF-7 cells [5] (read-out: half-maximal antimitotic activity (IC50) as determined by ELISA), the IC50 came to 52 nM.
On to caribaeolin, for which the IC50 in the data set on MCF-7 cells [1] (setting [6]) was ~20000 nM.
On to desacetyleleutherobin, for which the IC50 with MCF-7 cells [1] (setting [6]) is ~400 nM.
